Structures can show the parent of a compound that is named as a salt. Where two headings read alike, the source gives them in different places.
Columns and labels:
VRSA clinical isolates = experiment: microbe, parasite or virus in culture; assay type: cell-based; conditions: Staphylococcus aureus
Procedure, shortened: (§1)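 Strains were grown overnight at 37° C in TSB, adjusted in CAMHB to 0.3 absorbance at 578 nm and diluted 500-fold before equal-volume addition to compound dilutions.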

[1] = tested on: methicillin-susceptible S. aureus (MSSA), MRSA and mutants thereof; experiment: MIC measurement, Test Example 3 (MSSA, MRSA and sequential gyrA/grlA quinolone-resistant mutants); assay type: cell-based, Staphylococcus aureus; conditions: Staphylococcus aureus
Procedure, shortened: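 Broth microdilution in cation-adjusted Mueller Hinton broth: inoculum from overnight TSB cultures set to A578 0.3, then 500-fold diluted and added 1:1 to serial compound concentrations.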

[2] = tested on: VISA clinical isolates of MRSA (VI-MRSA) and of MSSA (VI-MSSA); experiment: microbe, parasite or virus in culture; assay type: cell-based, Staphylococcus aureus
Procedure, shortened: as §1

Enterococcus faecalis = experiment: MIC measurement, Test Example 6 (enterococcus); assay type: cell-based; conditions: Enterococcus faecalis, read-out: MIC
Procedure, shortened: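 Broth microdilution in cation-adjusted Mueller Hinton: inoculum from overnight TSB cultures adjusted to absorbance 0.3 at 578 nm and diluted 500×. Compounds at various concentrations; static 37° C overnight incubation. MIC = lowest concentration without visible turbidity; strains include two vancomycin-resistant NCTC isolates.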

Measured: MIC

NC1CCN(c2nc3c(cc2F)c(=O)c(C(=O)O)cn3-c2ccc(F)cc2F)C1 (centres unmarked) [TFLX, tosufloxacin tosylate]
4 µg/mL: VRSA clinical isolates; VRS1, VRSA, Michigan | VRSA clinical isolates; VRS7, VRSA, Michigan | [2]; Staphylococcus aureus, HIP07920, VI-MRSA, America
0.25 µg/mL: [2]; Staphylococcus aureus, SA MER-S6, VI-MSSA, France | [2]; Staphylococcus aureus, SA MER-S12, VI-MSSA, France | Enterococcus faecalis; E. faecalis 36-15696, quinolone-susceptible enterococci | Enterococcus faecalis; E. faecalis 36-15718, quinolone-susceptible enterococci | Enterococcus faecalis; E. faecalis 36-15736, quinolone-susceptible enterococci | Enterococcus faecalis; NCTC 12201 / VRE, E. faecalis NCTC12201, vancomycin-resistant (VRE), quinolone-susceptible enterococci
32 µg/mL: [2]; Staphylococcus aureus, 28160, VI-MRSA, South African Republic | [2]; Staphylococcus aureus, 98141, VI-MRSA, France | [2]; Staphylococcus aureus, A7 (JCSC4842), VI-MRSA, Taiwan | [2]; Staphylococcus aureus, BR2, VI-MRSA, Brazil | [2]; Staphylococcus aureus, BR3, VI-MRSA, Brazil | [2]; Staphylococcus aureus, LY-1999-03, VI-MRSA, Oman | [2]; Staphylococcus aureus, NJ (HIP5836), VI-MRSA, America
0.5 µg/mL: Enterococcus faecalis; E. faecalis 36-15672, quinolone-susceptible enterococci | Enterococcus faecalis; E. faecalis 36-15673, quinolone-susceptible enterococci | Enterococcus faecalis; E. faecalis 36-15678, quinolone-susceptible enterococci | Enterococcus faecalis; E. faecalis 36-15720, quinolone-susceptible enterococci | Enterococcus faecalis; E. faecalis 36-15730, quinolone-susceptible enterococci | Enterococcus faecalis; E. faecalis 36-15741, quinolone-susceptible enterococci | Enterococcus faecalis; NCTC 12203 / VRE, E. faecalis NCTC12203, vancomycin-resistant (VRE), quinolone-susceptible enterococci
8 µg/mL: [2]; Staphylococcus aureus, 99/3700-W, VI-MRSA, The United Kingdom | [2]; Staphylococcus aureus, LY-1999-01, VI-MSSA, Oman | [2]; Staphylococcus aureus, P1V44, VI-MSSA, Belgium
> 128 µg/mL: VRSA clinical isolates; VRS2, VRSA, Pennsylvania | VRSA clinical isolates; VRS3, VRSA, New York | VRSA clinical isolates; VRS4, VRSA, New York | VRSA clinical isolates; VRS5, VRSA, Michigan | VRSA clinical isolates; VRS6, VRSA, Michigan | [1]; MR5867-3, third-step mutant, further grlA S80F | [1]; MR5867-4, fourth-step mutant, further gyrA E88K | [1]; MS5935-3, third-step mutant, further grlA E84K | [1]; MS5952-3, third-step mutant, further grlA A116V | [2]; Staphylococcus aureus, AMC11094, VI-MRSA, Korea | [2]; Staphylococcus aureus, BR4, VI-MRSA, Brazil | [2]; Staphylococcus aureus, BR5, VI-MRSA, Brazil | [2]; Staphylococcus aureus, HIP07930, VI-MRSA, America | [2]; Staphylococcus aureus, HIP09143, VI-MRSA, America | [2]; Staphylococcus aureus, HIP09433, VI-MRSA, America | [2]; Staphylococcus aureus, HIP09662, VI-MRSA, America | [2]; Staphylococcus aureus, HIP09735, VI-MRSA, America | [2]; Staphylococcus aureus, HIP09737, VI-MSSA, America | [2]; Staphylococcus aureus, HIP09740, VI-MRSA, America | [2]; Staphylococcus aureus, HIP10267, VI-MRSA, America | [2]; Staphylococcus aureus, HIP12864, VI-MRSA, America | [2]; Staphylococcus aureus, HIP13057, VI-MRSA, America | [2]; Staphylococcus aureus, IL (HIP7737), VI-MRSA, America | [2]; Staphylococcus aureus, JCSC7195, VI-MRSA, Thailand | [2]; Staphylococcus aureus, LIM2, VI-MRSA, France | [2]; Staphylococcus aureus, MRSA / MSSA / NRS 76 / VISA, NRS76, VI-MSSA, America | [2]; Staphylococcus aureus, MRSA / MSSA / NRS 79 / VISA, NRS79, VI-MRSA, America | [2]; Staphylococcus aureus, MRSA / MSSA / NRS 118 / VISA, NRS118, VI-MRSA, America | [2]; Staphylococcus aureus, Mu50, VI-MRSA, Japan | Enterococcus faecalis; E. faecalis 36-15686, quinolone-resistant enterococci | Enterococcus faecalis; E. faecalis 36-15694, quinolone-resistant enterococci | Enterococcus faecalis; E. faecalis 36-15703, quinolone-resistant enterococci | Enterococcus faecalis; E. faecalis 36-15716, quinolone-resistant enterococci | Enterococcus faecalis; E. faecalis 36-15722, quinolone-resistant enterococci | Enterococcus faecalis; E. faecalis 36-15726, quinolone-resistant enterococci
2 µg/mL: [1]; MS5952-1, first-step quinolone-resistant mutant, grlA S80Y
64 µg/mL: [1]; MS5935-2, second-step mutant, further gyrA S84L | [2]; Staphylococcus aureus, HIP13036, VI-MRSA, America
16 µg/mL: [2]; Staphylococcus aureus, 99/3759-V, VI-MRSA, The United Kingdom | [2]; Staphylococcus aureus, B7 (JCSC4852), VI-MRSA, Taiwan | [2]; Staphylococcus aureus, MI (HIP5827), VI-MRSA, America | [2]; Staphylococcus aureus, Mu3, VI-MRSA, Japan
≤ 0.063 µg/mL: [1]; FDA209P / MRSA / MSSA, FDA209P (MSSA), control, read-out: MIC | [1]; MR5867 (MRSA), clinical isolate parent strain, no mutation | Enterococcus faecalis; E. faecalis 36-15688, quinolone-susceptible enterococci
128 µg/mL: [2]; Staphylococcus aureus, BR1, VI-MRSA, Brazil | [2]; Staphylococcus aureus, HIP06297, VI-MRSA, America | [2]; Staphylococcus aureus, HIP06854, VI-MRSA, America | [2]; Staphylococcus aureus, HIP08926, VI-MRSA, America | [2]; Staphylococcus aureus, HIP09313, VI-MRSA, America | [2]; Staphylococcus aureus, HIP10540, VI-MRSA, America | [2]; Staphylococcus aureus, JCSC7193, VI-MRSA, Thailand | [2]; Staphylococcus aureus, JCSC7203, VI-MRSA, Thailand | [2]; Staphylococcus aureus, MRSA / MSSA / NRS 126 / VISA, NRS126, VI-MRSA, America | [2]; Staphylococcus aureus, PC, VI-MRSA, America
1 µg/mL: [1]; MS5935-1, first-step quinolone-resistant mutant, grlA S80F | [2]; Staphylococcus aureus, SA MER-S20, VI-MSSA, France
